These results are taken from patent US9067960B2, “Hybrid SCFA-hydroxyl-derivatized monosaccharides, methods of synthesis, and methods of treating disorders” (The Johns Hopkins University, priority 2007, dated 2015).

The nature of one series: Toxicity of MOE analogs. The format is cell-based.
A further series deals with stem cells. As to the kind of experiment: Control of stem cell fate. In kind it is cell-based, human. From the text:
The combination of the biological activities SCFA- and sugar activities of compounds (such as Bu4ManNAc or l(OH)But3ManNAc is useful for cancer treatment because each of the biological activities of the hybrid molecule have been designed to work in concert against a particular characteristic of cancer. An equally valuable aspect of the current invention, however, is ability to separate the various biological activities of the hybrid molecules—for example it is now possible to maintain flux through a glycosylation pathway and to simultaneously avoid or minimize SCFA effects such as toxicity or changes to gene expression that affect the cellular phenotype under investigation (see FIG. 10). This ability opens the door to the many scenarios where an SCFA is attached to a core sugar towards the sole purpose of increasing the metabolic efficiency of the sugar without triggering biological activities of the SCFA moiety. In this case, non-natural monosaccharide analogs would transit the glycosylation pathways without eliciting unrelated changes to proliferation, apoptosis, or gene expression that would either confound interpretation of the experiment under way or actually lead to deleterious cellular outcomes. […]

In a further series the test system is human cancer cells. Description: Killing of cancer cells by SCFA-hexosamine hybrid molecules (apoptosis, growth). The format is cell-based. From the text:
ManNAc has several attractive features that led us to select it as an hexosamine for use in butyrate-sugar hybrid drug development. First, it is a committed precursor for the sialic acid biosynthetic pathway and has no other known metabolic roles, thereby allowing a specific and unique biochemical pathway to be targeted. Second, uptake of exogenous ManNAc alters flux through the sialic acid biosynthetic pathway and changes sialyltransferase and sialidase activity thereby altering the display of sialic acid on cell surface glycoproteins and glycolipids. Because these sialoglycans modulate apoptosis, it was hypothesized that an n-butyrate prodrug with ManNAc as an active carrier would both “arrest” and “execute” cancer cells via SCFA-mediated cell cycle inhibition and ManNAc-augmented apoptosis, respectively. […]
Jurkat cells (5.0×10^5 per mL) are incubated with PBS and a compound of the invention at […]. After 48 h, the cells are counted, harvested, washed once in fresh medium and plated in a 24-well plate containing various concentrations of sodium butyrate (0-2.0 mM; a stock solution of 200 mM in PBS was used for dilutions and control samples). Cell cultures are maintained and growth is monitored for 15 days as described above under the toxicity and growth inhibition assays. […]

In another series the test system is sialic acid biosynthesis. As to the kind of experiment: Total sialic acid production (periodate-resorcinol assay). In kind it is cell-based. The procedure: Jurkat cells (5.0×10^6 cells in 10 mL medium) are incubated a compound of the invention at various concentrations. After three days, the cells (1.0×10^6 cells per sample) are lysed by freeze-thaw cycles (three times). The cell lysates are analyzed by using an adapted version of the periodate-resorcinol assay with the periodic acid oxidation step performed on ice to allow quantification of total (i.e., free monosaccharide plus glycoconjugate-bound) sialic acid. For each assay, a standard curve is obtained using N-acetylneuraminic acid (Pfanstiehl, Waukegan, Ill.) for calibration.

The next series has as its system histone deacetylase. Description: HDAC inhibitor (SCFA) activity of sugar-delivered butyrate. In kind it is cell-based. From the text: In this section, we present evidence for the first aspect of our model to describe the bioactivity of the compounds of the invention against cancer cells—namely that sugar-delivered butyrate acts as an HDACi—by a set of three complementary assays. […] Together, these assays provide convincing proof that sugar-delivery n-butyrate retains its characteristic SCFA bioactivity.

Series [1] deals with Jurkat cells. As to the kind of experiment: Surface expression of Sia5Lev: ketone-bearing sialosides by biotin hydrazide, FITC-avidin, flow cytometry. In kind it is cell-based, human. Background: In flow cytometry, cells or beads pass a laser one at a time.
Series [2] relates to Jurkat cells. Description: Toxicity and growth inhibition assays (cell counts, days 3-15). The format is cell-based, human. Here is the method: Solutions of the analogs in EtOH (10 mM stock) are coated onto 24-well plates at a range of concentrations from 0-320 μM and ethanol is allowed to evaporate. Jurkat cells (1.0×10^5 cells) in 0.5 mL of medium are plated in each well (day 0). On days 3 and 5, fresh medium (1.0 mL) is added to each well. Cell cultures are mixed by gentle pipetting and 100 μL of cell suspension are taken from each well and counted. On days 7, 9, 11, 13 and 15, 1.0 mL of cell suspension is removed from each well after thorough mixing and fresh medium (1.0 mL) is added. Cells are counted on day 15 and the cell density is plotted as a percentage of control.
In initial assays, Jurkat (human T-lymphoma) cells are incubated with compounds of the invention and growth rates were monitored. The compounds reduce cell proliferation at early time points (days 3 & 5) in a dose dependent manner.

The next series concerns transformed cells. The conditions noted are these: cited from earlier work.

“Also recorded” adds a separate entry of the source.

Take `CCCC(=O)OC1O[C@H](CO)[C@@H](OC(=O)CCC)[C@H](OC(=O)CCC)[C@@H]1NC(C)=O` (some centres unmarked) [6(OH)But3ManNAc, 1,3,4-O-Bu3ManNAc]: in the series “Toxicity of MOE analogs”, the toxicity entry was “avoiding toxicity”.

On to `CC(=O)OCC(=O)N[C@@H]1C(OC(C)=O)O[C@H](COC(C)=O)[C@@H](OC(C)=O)[C@@H]1OC(C)=O` (some centres unmarked) [Ac5ManNGc], for which the toxicity entry in “Toxicity of MOE analogs” is reported as “considerable toxicity”.

Consider `CC(=O)OCC1OC(OC(C)=O)C(NC(=O)CSC(C)=O)C(OC(C)=O)C1OC(C)=O` (centres unmarked) [Ac5ManNTGc], for which the toxicity entry in “Toxicity of MOE analogs” is on record as “considerable toxicity”. Besides, the “fate of stem cells” value in the series with stem cells was “can control the fate of stem cells”.

Regarding `CCCC(=O)OCC1OC(OC(=O)CCC)C(NC(C)=O)[C@@H](OC(=O)CCC)[C@@H]1OC(=O)CCC` (some centres unmarked) [Bu4ManNAc], in the series on human cancer cells, the cell killing entry is reported as “ultimately killed the cells” and the induction of apoptosis entry is reported as “gains a unique ability to induce apoptosis; also recorded: efficiently induced apoptosis”. Also, the sialic acid biosynthesis entry with sialic acid biosynthesis was “activates sialic acid biosynthesis; also recorded: primes sialic acid biosynthesis”. For the same molecule, in the series with histone deacetylase, the “function as histone deacetylase inhibitor (HDACi)” value was “functioning as an HDACi”.

Turning to `CCCC(=O)OC1O[C@H](CO)[C@@H](OC(=O)CCC)[C@H](OC(=O)CCC)[C@@H]1NC(=O)CCC(C)=O` (stereo partly drawn) [compound 13, 1,3,4-tri-O-butanoyl-2-deoxy-2-(4-oxopentanoyl)amino-α,β-D-mannopyranose], the “Surface detection of ketone-bearing sialosides (cell surface ketone labeling)” value in the series with Jurkat cells [1] was “even more efficient at providing cell surface ketone labeling”. The “Growth inhibition after 3 days” value with Jurkat cells [2] was “significantly less inhibitory”.

As for `CCCC(=O)O.COc1cccc(C#CCON=C2CN3CCC2C3)c1` (centres unmarked) [n-Butyrate, n-butyrate], the “levels needed for bioactivity” value in the series on transformed cells is “up to 50 mM”.
